Each block holds one compound with its values, some of them ahead of it.
Legend:
ErbB2 (V777L) = target: T1, ErbB2 (V777L) (Homo sapiens, UniProt P04626, V777L); assay: ErbB2 mutant inhibition assay (33P-ATP radiometric kinase assay, Reaction Biology); format: biochemical; conditions: ATP 10 μM, 20 min preincubation, 2 h reaction; read-out: Compound IC50 ErbB2 (V777L)
T1 construct: purchased Reaction Biology Corporation
Method: (§1) The reagents and materials used in the assay, as well as the testing procedure, were provided and carried out by Reaction Biology Corporation. The specific steps were as follows: • 1. […] Conditions for the enzyme reaction assay: The test compounds were incubated for 20 minutes, ATP concentration was set at 10 μM, and the total duration of the enzyme reaction was 2 hours. • 3. Experimental steps for the enzyme reaction
(§2) The enzyme reaction buffer was 20 mM HEPES at a pH of 7.5, 10 mM MgCl2, 2 mM MnCl2, 1 mM EGTA, 0.01% Brij35, 0.02 mg/mL BSA, 0.1 mM Na3VO4, 2 mM DTT, and 1% DMSO.
(§3) Kinase activity %=(Remaining kinase activity of test compound samples/Kinase activity of solvent control samples (DMSO))*100%
(§4) The IC50 of the compound was calculated by fitting the kinase activity % at different compound concentrations.

ErbB2 (D769Y) = target: T2, ErbB2 (D769Y) (Homo sapiens, UniProt P04626, D769Y); assay: as above; format: biochemical; conditions: ATP 10 μM, 20 min preincubation, 2 h reaction; read-out: Compound IC50 ErbB2 (D769Y)
T2 construct: purchased Reaction Biology Corporation
Method: as §1, §2, §3, §4

ErbB2 (R896C) = target: T3, ErbB2 (R896C) (Homo sapiens, UniProt P04626, R896C); assay: as above; format: biochemical; conditions: ATP 10 μM, 20 min preincubation, 2 h reaction; read-out: Compound IC50 ErbB2 (R896C)
T3 construct: purchased Reaction Biology Corporation
Method: as §1, §2, §3, §4

ErbB2 (D769H) = target: T4, ErbB2 (D769H) (Homo sapiens, UniProt P04626, D769H); assay: as above; format: biochemical; conditions: ATP 10 μM, 20 min preincubation, 2 h reaction; read-out: Compound IC50 ErbB2 (D769H)
T4 construct: purchased Reaction Biology Corporation
Method: as §1, §2, §3, §4

[1] = test system: Ba/F3 ErbB2 A775_G776insYVMA mouse xenograft; assay: Efficacy testing in NPSG mouse xenograft model; format: in vivo; conditions: for Efficacy (in words): continuous administration for 13 days; for TGI (%): administration for 13 days
Text: NPSG male mice (Shanghai Jihui Laboratory Animal Care Co., Ltd., Certificate: No. 20170012006783) were subcutaneously inoculated on the right shoulder with Ba/F3 ErbB2 A775_G776insYVMA cells (cultured in vitro, 9×10^7 cells obtained). When the average tumor volume reached 130 mm^3, the mice were randomly divided into six groups based on tumor volume and body weight, with 10 mice in each group, and administration was started immediately. After the initiation of administration, the mice's body weight and tumor volume were measured twice a week, with the administration continued until Day 13 of the experiment. On Day 14 of the experiment, post-administration sample collection was conducted for each group.
Note: Data are presented as mean±standard error; control group is the group without any compound administered.

[2] = test system: Ba/F3 ErbB2 A775_G776insYVMA; assay: ErbB2 mutant cell inhibition test (CTG, 72 hours); format: cell-based; conditions: for IC50: Mus musculus, BaF3, Ba/F3 ErbB2 A775_G776insYVMA, 72 hours, CTG
Method: Cells were cultured, harvested during their logarithmic growth phase, and counted using a platelet counter. Cell viability was verified to be above 90% by trypan blue exclusion assay. After in vitro culture, 2×10^6 cells were obtained. […] A 10× drug solution was prepared, with a maximum concentration of 10 μM for the assay, and serially diluted 3-fold to nine concentrations. 10 μL of the drug solution was added to each well of the 96-well plate inoculated with the cells, and three duplicate wells were set for each drug concentration.

[3] = test system: NCI-H1781 ErbB2 exon20ins (G766 > VC); assay: ErbB2 mutant cell inhibition test (CTG, 72 hours); format: cell-based, Human
Method: Cells were cultured, harvested during their logarithmic growth phase, and counted using a platelet counter. Cell viability was verified to be above 90% by trypan blue exclusion assay. After in vitro culture, 2×10^6 cells were obtained. The cell suspension was aliquoted into a 96-well plate at 1×10^3 cells per well (90 μL/well), and incubated overnight under conditions of 37° C., 5% CO2, and 95% humidity. A 10× drug solution was prepared, with a maximum concentration of 10 μM for the assay, and serially diluted 3-fold to nine concentrations. 10 μL of the drug solution was added to each well of the 96-well plate inoculated with the cells, and three duplicate wells were set for each drug concentration. The 96-well plate, now containing the drug-treated cells, was cultured under conditions of 37° C., 5% CO2, and 95% humidity for an additional 72 hours before CTG analysis was performed.

[4] = 20 mg/kg, Day 0, mean ± standard error
[5] = 20 mg/kg, Day 4, mean ± standard error
[6] = 20 mg/kg, Day 7, mean ± standard error
[7] = 20 mg/kg, Day 11, mean ± standard error
[8] = 20 mg/kg, Day 13, mean ± standard error

T3 sequence (P04626 23-1255 R896C): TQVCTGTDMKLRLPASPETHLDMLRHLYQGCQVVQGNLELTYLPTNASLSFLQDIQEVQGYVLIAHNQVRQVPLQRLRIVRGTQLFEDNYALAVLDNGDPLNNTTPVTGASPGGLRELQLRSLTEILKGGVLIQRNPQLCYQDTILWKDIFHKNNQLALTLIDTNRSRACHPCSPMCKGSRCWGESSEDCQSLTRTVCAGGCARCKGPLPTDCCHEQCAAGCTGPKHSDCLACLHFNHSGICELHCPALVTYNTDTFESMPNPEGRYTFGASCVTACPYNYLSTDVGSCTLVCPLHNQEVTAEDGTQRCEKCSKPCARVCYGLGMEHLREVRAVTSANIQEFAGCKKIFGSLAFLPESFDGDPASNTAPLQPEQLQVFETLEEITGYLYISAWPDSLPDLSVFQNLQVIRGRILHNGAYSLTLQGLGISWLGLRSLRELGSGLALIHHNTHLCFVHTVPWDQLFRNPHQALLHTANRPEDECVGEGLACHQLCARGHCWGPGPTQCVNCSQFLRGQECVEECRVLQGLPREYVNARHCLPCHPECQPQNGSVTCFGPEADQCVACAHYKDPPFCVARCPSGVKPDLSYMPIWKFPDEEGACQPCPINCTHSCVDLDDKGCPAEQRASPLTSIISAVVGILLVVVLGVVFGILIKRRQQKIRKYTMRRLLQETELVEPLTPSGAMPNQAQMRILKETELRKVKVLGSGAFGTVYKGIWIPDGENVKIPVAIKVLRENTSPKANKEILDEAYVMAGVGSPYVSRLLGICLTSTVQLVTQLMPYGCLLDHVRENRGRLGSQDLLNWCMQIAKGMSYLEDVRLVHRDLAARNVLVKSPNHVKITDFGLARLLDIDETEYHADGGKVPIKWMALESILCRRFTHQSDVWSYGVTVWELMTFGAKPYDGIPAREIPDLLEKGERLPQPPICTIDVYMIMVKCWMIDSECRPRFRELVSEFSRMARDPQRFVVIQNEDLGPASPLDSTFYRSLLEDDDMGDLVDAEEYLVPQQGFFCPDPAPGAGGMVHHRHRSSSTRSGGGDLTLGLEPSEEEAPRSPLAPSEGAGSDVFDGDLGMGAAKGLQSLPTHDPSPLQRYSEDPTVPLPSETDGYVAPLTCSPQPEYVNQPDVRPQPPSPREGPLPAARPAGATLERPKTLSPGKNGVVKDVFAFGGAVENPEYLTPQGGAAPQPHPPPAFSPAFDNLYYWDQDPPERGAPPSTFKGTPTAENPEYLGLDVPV
T4 sequence (P04626 23-1255 D769H): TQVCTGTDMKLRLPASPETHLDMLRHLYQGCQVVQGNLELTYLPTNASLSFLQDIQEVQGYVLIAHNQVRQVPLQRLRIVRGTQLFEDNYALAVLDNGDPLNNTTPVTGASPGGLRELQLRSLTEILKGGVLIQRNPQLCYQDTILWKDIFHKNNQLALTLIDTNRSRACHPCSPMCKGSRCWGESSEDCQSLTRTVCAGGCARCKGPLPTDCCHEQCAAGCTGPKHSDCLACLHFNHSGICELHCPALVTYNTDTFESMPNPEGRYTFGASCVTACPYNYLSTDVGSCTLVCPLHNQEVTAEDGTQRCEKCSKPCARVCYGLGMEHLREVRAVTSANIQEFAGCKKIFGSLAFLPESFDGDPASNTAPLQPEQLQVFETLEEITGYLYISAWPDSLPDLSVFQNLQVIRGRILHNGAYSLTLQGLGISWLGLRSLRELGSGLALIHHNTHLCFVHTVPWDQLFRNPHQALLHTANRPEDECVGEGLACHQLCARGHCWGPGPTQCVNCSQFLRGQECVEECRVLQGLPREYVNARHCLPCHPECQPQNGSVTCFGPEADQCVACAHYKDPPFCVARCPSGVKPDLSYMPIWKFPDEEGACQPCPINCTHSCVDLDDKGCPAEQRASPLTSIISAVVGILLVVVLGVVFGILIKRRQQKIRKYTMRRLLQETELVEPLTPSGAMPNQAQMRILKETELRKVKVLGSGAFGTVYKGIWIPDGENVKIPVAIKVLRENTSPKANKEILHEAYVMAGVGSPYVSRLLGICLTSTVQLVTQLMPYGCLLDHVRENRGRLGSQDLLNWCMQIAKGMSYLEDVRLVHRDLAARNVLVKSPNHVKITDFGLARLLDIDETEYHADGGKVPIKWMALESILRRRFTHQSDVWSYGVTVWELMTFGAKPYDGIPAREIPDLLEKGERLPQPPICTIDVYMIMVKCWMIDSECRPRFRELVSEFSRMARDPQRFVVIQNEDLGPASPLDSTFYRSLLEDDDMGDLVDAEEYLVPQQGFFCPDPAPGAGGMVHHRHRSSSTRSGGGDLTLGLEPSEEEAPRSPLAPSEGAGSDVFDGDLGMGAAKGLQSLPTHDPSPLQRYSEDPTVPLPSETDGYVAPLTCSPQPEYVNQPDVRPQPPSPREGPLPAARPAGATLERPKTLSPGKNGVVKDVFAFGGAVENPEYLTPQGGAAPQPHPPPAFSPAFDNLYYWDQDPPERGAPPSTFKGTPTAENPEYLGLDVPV
T1 sequence (P04626 23-1255 V777L): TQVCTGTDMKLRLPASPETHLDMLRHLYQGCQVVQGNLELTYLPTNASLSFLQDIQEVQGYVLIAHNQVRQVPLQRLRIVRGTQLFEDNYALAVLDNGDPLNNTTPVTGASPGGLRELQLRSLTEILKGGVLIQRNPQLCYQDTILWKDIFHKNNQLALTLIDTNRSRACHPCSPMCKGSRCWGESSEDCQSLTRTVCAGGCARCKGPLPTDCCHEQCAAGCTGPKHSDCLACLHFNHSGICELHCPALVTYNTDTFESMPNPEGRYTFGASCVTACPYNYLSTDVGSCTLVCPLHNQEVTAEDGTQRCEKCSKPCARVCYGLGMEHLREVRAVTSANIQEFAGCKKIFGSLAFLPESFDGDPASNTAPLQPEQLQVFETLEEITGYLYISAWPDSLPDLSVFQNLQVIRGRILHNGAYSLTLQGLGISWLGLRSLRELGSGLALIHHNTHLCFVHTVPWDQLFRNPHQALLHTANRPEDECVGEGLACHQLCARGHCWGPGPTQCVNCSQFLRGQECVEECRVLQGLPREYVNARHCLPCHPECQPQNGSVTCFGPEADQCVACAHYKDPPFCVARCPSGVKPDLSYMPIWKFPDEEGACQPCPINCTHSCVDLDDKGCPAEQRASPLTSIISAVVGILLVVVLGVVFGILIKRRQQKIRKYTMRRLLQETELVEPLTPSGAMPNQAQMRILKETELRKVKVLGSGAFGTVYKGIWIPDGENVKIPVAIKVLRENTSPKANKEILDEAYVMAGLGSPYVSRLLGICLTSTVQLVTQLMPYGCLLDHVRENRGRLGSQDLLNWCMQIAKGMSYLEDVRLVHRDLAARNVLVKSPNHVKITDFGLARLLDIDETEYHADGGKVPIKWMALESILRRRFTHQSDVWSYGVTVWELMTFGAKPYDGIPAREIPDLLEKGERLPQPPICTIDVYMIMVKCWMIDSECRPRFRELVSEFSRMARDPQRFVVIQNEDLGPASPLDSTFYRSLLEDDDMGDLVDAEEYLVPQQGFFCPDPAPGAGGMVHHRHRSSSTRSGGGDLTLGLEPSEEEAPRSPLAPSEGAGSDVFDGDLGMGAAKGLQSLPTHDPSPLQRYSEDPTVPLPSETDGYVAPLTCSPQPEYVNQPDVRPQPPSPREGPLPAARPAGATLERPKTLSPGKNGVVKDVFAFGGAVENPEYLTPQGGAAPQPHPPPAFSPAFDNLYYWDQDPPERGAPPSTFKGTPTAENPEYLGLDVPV
T2 sequence (P04626 23-1255 D769Y): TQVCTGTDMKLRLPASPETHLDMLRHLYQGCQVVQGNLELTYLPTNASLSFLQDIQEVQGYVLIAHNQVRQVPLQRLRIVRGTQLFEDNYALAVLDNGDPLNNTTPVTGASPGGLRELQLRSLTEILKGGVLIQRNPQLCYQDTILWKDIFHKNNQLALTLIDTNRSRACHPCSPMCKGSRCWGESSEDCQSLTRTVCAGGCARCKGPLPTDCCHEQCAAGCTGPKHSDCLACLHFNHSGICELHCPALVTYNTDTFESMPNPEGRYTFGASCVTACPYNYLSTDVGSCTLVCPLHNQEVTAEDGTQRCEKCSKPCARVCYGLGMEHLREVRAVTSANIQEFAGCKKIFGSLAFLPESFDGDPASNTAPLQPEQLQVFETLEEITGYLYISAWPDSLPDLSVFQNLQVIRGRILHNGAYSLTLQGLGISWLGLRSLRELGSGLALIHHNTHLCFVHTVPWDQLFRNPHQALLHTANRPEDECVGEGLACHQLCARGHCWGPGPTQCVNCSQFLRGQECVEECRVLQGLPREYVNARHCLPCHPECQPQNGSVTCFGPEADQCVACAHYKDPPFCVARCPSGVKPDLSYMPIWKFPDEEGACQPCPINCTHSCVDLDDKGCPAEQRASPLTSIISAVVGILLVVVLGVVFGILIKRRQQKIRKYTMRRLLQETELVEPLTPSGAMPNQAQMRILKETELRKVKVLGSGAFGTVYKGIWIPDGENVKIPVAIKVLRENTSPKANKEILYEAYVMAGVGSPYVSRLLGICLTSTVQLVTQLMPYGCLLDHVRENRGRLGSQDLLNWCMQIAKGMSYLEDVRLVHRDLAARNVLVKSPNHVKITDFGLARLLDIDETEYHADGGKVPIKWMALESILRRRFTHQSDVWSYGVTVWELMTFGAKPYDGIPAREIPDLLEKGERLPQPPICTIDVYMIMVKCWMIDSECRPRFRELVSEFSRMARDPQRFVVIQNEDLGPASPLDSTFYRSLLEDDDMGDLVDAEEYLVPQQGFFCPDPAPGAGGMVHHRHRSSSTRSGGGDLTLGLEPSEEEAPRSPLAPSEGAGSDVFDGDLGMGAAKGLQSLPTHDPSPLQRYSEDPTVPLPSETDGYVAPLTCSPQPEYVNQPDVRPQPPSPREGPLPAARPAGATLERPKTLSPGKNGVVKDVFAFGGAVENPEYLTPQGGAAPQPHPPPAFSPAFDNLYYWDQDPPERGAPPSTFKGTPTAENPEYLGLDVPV

IC50 (ErbB2 (V777L)): 0.471 nM
IC50 (ErbB2 (D769Y)): 0.413 nM
IC50 (ErbB2 (R896C)): 1.87 nM
IC50 (ErbB2 (D769H)): 0.563 nM
SMILES: CCOc1cc2ncnc(Nc3ccc(Oc4cc5nncn5cn4)c(C)c3)c2cc1NC(=O)/C=C/[C@H]1CCCN1C

IC50 (ErbB2 (V777L)): 0.163 nM
IC50 (ErbB2 (D769Y)): 1.45 nM
IC50 (ErbB2 (R896C)): 0.788 nM
IC50 (ErbB2 (D769H)): 0.549 nM
SMILES: Cc1cc(Nc2ncnc3ccc(NC(=O)/C=C/[C@@H]4CCCN4C)cc23)ccc1Oc1cc2nncn2cn1

IC50 (ErbB2 (V777L)): 0.625 nM
IC50 (ErbB2 (D769Y)): 1.98 nM
IC50 (ErbB2 (R896C)): 0.191 nM
IC50 (ErbB2 (D769H)): 0.253 nM
SMILES: Cc1cc(Nc2ncnc3ccc(NC(=O)/C=C/[C@H]4CCCN4C)cc23)ccc1Oc1ccn2cnnc2c1

IC50 (ErbB2 (V777L)): < 0.152 nM
IC50 (ErbB2 (D769Y)): < 0.152 nM
IC50 (ErbB2 (R896C)): 0.599 nM
IC50 (ErbB2 (D769H)): 0.241 nM
SMILES: COCCOc1cc2ncnc(Nc3ccc(Oc4cc5nncn5cn4)c(C)c3)c2cc1NC(=O)/C=C/[C@H]1CCCN1C

IC50 (ErbB2 (V777L)): 0.889 nM
IC50 (ErbB2 (D769Y)): 2.06 nM
IC50 (ErbB2 (R896C)): 1.94 nM
IC50 (ErbB2 (D769H)): 1.34 nM
SMILES: CCOc1cc2ncc(C#N)c(Nc3ccc(Oc4cc5nncn5cn4)c(C)c3)c2cc1NC(=O)/C=C/[C@H]1CCCN1C

The next lines start with the compound.

SMILES: Cc1cc(Nc2ncnc3ccc(NC4=NC(C)(C)CO4)cc23)ccc1Oc1ccn2ncnc2c1 [Tucatinib, reference compound]
IC50 (ErbB2 (V777L)): 1.08 nM
IC50 (ErbB2 (D769Y)): 8.89 nM
IC50 (ErbB2 (R896C)): 2.17 nM
IC50 (ErbB2 (D769H)): 2.58 nM

SMILES: CS(=O)(=O)CCNCc1ccc(-c2ccc3ncnc(Nc4ccc(OCc5cccc(F)c5)c(Cl)c4)c3c2)o1 [Lapatinib, reference compound]
Efficacy (in words) ([1]; 20 mg/kg): moderate efficacy
IC50 [2]: 106 nM

SMILES: CCOc1cc2ncc(C#N)c(Nc3ccc(OCc4ccccn4)c(Cl)c3)c2cc1NC(=O)/C=C/CN(C)C [Neratinib, reference compound]
Tumor volume [1, 4]: 130.9 ± 4.75 mm^3
Tumor volume [1, 5]: 115.3 ± 9.81 mm^3
Tumor volume [1, 6]: 182 ± 10.87 mm^3
Tumor volume [1, 7]: 325.6 ± 9.86 mm^3
Tumor volume [1, 8]: 532.8 ± 15.26 mm^3
TGI (%) ([1]; 20 mg/kg): 56%

SMILES: CCOc1cc2ncnc(Nc3ccc(Oc4ccn5ncnc5c4)c(C)c3)c2cc1NC(=O)/C(F)=C/[C@H]1CCCN1C [Compound I]
IC50 (ErbB2 (V777L)): 0.312 nM
IC50 (ErbB2 (D769Y)): 1.4 nM
IC50 (ErbB2 (R896C)): 0.713 nM
IC50 (ErbB2 (D769H)): 0.716 nM
IC50 ([3]; Homo sapiens, NCI-H1781 ErbB2 exon20ins (G766 > VC), 72 hours, CTG): 35.8 nM
Inhibitory activity on cell proliferation (in words) ([3]; NCI-H1781 mutant cell line): good inhibitory activity
Tumor volume ([1]; 10 mg/kg, Day 0, mean ± standard error): 130.9 ± 4.72 mm^3
Tumor volume ([1]; 10 mg/kg, Day 4, mean ± standard error): 112.1 ± 4.71 mm^3
Tumor volume ([1]; 10 mg/kg, Day 7, mean ± standard error): 157.7 ± 6.95 mm^3
Tumor volume ([1]; 10 mg/kg, Day 11, mean ± standard error): 160.2 ± 6.3 mm^3
Tumor volume ([1]; 10 mg/kg, Day 13, mean ± standard error): 172.9 ± 11.16 mm^3
TGI (%) ([1]; 10 mg/kg): 95%
Efficacy (in words) ([1]; 10 mg/kg): strong efficacy
Tumor volume [1, 4]: 130.2 ± 5.25 mm^3
Tumor volume [1, 5]: 69.2 ± 2.69 mm^3
Tumor volume [1, 6]: 82.7 ± 4.74 mm^3
Tumor volume [1, 7]: 93.5 ± 5.75 mm^3
Tumor volume [1, 8]: 71.1 ± 4.51 mm^3
TGI (%) ([1]; 20 mg/kg): 107%
Efficacy (in words) ([1]; 20 mg/kg): strong efficacy
Tumor volume ([1]; 40 mg/kg, Day 0, mean ± standard error): 130.1 ± 5 mm^3
Tumor volume ([1]; 40 mg/kg, Day 4, mean ± standard error): 63.8 ± 4.44 mm^3
Tumor volume ([1]; 40 mg/kg, Day 7, mean ± standard error): 36.3 ± 11.12 mm^3
Tumor volume ([1]; 40 mg/kg, Day 11, mean ± standard error): 21.5 ± 9.26 mm^3
Tumor volume ([1]; 40 mg/kg, Day 13, mean ± standard error): 20.6 ± 8.61 mm^3
TGI (%) ([1]; 40 mg/kg): 112%
Efficacy (in words) ([1]; 40 mg/kg): strong efficacy
Tumor inhibitory effect compared with the other test groups (in words) ([1]; 40 mg/kg, statistically different from other test groups (p-value less than 0.01)): strongest tumor inhibitory effect
Inhibitory activity on cell proliferation (in words) ([2]; Ba/F3 ErbB2 A775_G776insYVMA mutant cell line): good inhibitory activity
IC50 [2]: 5 nM

SMILES: Cc1cc(Nc2ncnc3ccc(NC(=O)/C=C/[C@H]4CCCN4C)cc23)ccc1Oc1ccn2ccnc2c1
IC50 (ErbB2 (V777L)): < 0.152 nM
IC50 (ErbB2 (D769Y)): 0.244 nM
IC50 (ErbB2 (R896C)): 0.379 nM
IC50 (ErbB2 (D769H)): < 0.152 nM

SMILES: Cc1cc(Nc2ncnc3ccc(NC(=O)/C=C/[C@H]4CCCN4)cc23)ccc1Oc1ccn2ncnc2c1
IC50 (ErbB2 (V777L)): 0.186 nM
IC50 (ErbB2 (D769Y)): 0.246 nM
IC50 (ErbB2 (R896C)): 0.997 nM
IC50 (ErbB2 (D769H)): 0.325 nM
